Measurements taken from patent US5464617A, “β-lactam compounds” (Hoffmann-La Roche Inc., priority 1994, dated 1995).
≈ marks a conversion by molar mass, not a printed value. Structures can show the parent of a compound that is named as a salt.

Experiments:
[1] = tested on: Citrobacter freundii 1982; assay: MIC in vitro of a 1:4 combination of ceftriaxone with a compound of formula I (Test D); assay type: cell-based; settings: test D
Experimental: The minimum inhibitory concentration in vitro ([…]) of a 1:4 combination of ceftriaxone with a compound of formula I against Citrobacter freundii 1982 was measured and compiled in Table 2 hereinafter.

E. coli 1346 = assay: Antibacterial activity of the products per se, serial dilution method in liquid medium (Test E); assay type: cell-based; settings: test E, product per se
Excerpt: The antibacterial activity of the products per se is illustrated on the basis of Table 3 hereinafter, the minimum inhibitory concentration […] in vitro against E. coli 1346 being determined using the serial dilution method in liquid medium: […]

[2] = Table 4, 1:4 combination of ceftriaxone with the compound

Row | MIC C. freundii 1982 (D) [1, 2] [µg/mL] | MIC E. coli 1346 (E) (E. coli 1346; Table 4) [µg/mL] | MIC C. freundii 1982 (D) ([1]; Table 5, particularly preferred products, 1:4 combination with ceftriaxone) [µg/mL] | MIC E. coli 1346 (E) (E. coli 1346; Table 5, particularly preferred products) [µg/mL] | Structure (SMILES)
1 | 1 | 8 | – | – | C=CCN1C[C@H]2OC(CSc3nnnn3C)=C(C(=O)O)N3C(=O)[C@@H]1[C@@H]23 [Example 30, (1aS,3aR,6bS)-2-Allyl-5-(1-methyl-1H-tetrazol-5-ylsulphanylmethyl)-1-oxo-4-oxa-1,1a,2,3,3a,6b-hexahydro-2,6a-diazacyclobut[cd]indene-6-carboxylic acid sodium salt]
2 | 0.5 | 8 | – | – | Cc1nnc(SCC2=C(C(=O)O)N3C(=O)[C@@H]4[C@H]3[C@@H](CN4C(=O)Nc3ccc(O)cc3)O2)s1 [Example 31(a), (1aS,3aR,6bS)-2-(4-Hydroxy-phenylcarbamoyl)-5-(5-methyl-1,3,4-thiadiazol-2-ylsulphanylmethyl)-1-oxo-1,1a,2,3,3a,6 b-hexahydro-4-oxa-2,6a-diazacyclobut[cd]indene-6-carboxylic acid sodium salt]
3 | 2 | 2 | – | – | CC(=O)N1C[C@H]2OC(CSc3nnc(N)s3)=C(C(=O)O)N3C(=O)[C@@H]1[C@@H]23 [Example 33, (1aS,3aR,6bS)-2-Acetyl-5-(5-amino-1,3,4-thiadiazol-2-ylsulphanylmethyl)-1-oxo-1,1a,2,3,3a,6b-hexahydro-4-oxa-2,6a-diazacyclobut[cd]indene-6-carboxylicacid sodium salt]
4 | 1 | 8 (≈ 16.1 µM) | – | – | Cc1nnc(SCC2=C(C(=O)O)N3C(=O)[C@@H]4[C@H]3[C@@H](CN4C(=O)CSc3nnnn3C)O2)s1 [Example 34, (1aS,3aR,6bS)-2-(1-Methyl-1H-tetrazol-5-ylsulphanylacetyl)-5-(5-methyl-1,3,4-thiadiazol-2-ylsulphanylmethyl)-1-oxo-1,1a,2,3,3a,6b-hexahydro-4-oxa-2,6a-diazacyclobut[cd]indene-6-carboxylic acid]
5 | – | – | 1 | 0.5 | CC(=O)N1C[C@H]2OC(CSc3nnnn3C)=C(C(=O)O)N3C(=O)[C@@H]1[C@@H]23 [Example 35, (1aS,3aR,6bS)-2-Acetyl-5-(1-methyl-1H-tetrazol-5-yl-sulphanylmethyl)-1-oxo-1,1a,2,3,3a,6b-hexahydro-4-oxa-2,6 a-diazacyclobut[cd]indene-6-carboxylic acid sodium salt]
6 | 2 | 8 | – | – | NC(=O)Cn1nnnc1SCC1=C(C(=O)O)N2C(=O)[C@@H]3[C@H]2[C@@H](CN3C(=O)C(F)(F)F)O1 [Example 39, (1aS,3aR,6bS)-5-(1-Carbamoylmethyl-1H-tetrazol-5-ylsulphanylmethyl)-1-oxo-2-trifluoroacetyl-1,1a,2,3,3a,6b-hexahydro-4-oxa-2,6a-diazacyclobut[cd]indene-6-carboxylic acid sodium salt]

The next lines start with the compound.

Row | Structure (SMILES) | MIC C. freundii 1982 (D) [1, 2] [µg/mL] | MIC E. coli 1346 (E) (E. coli 1346; Table 4) [µg/mL] | MIC C. freundii 1982 (D) ([1]; Table 5, particularly preferred products, 1:4 combination with ceftriaxone) [µg/mL] | MIC E. coli 1346 (E) (E. coli 1346; Table 5, particularly preferred products) [µg/mL]
7 | O=C(Cn1nnnc1SCC1=C(C(=O)O)N2C(=O)[C@H]3NC[C@@H](O1)[C@H]32)NC1CC1 [Example 29(g), (1aS,3aR,6bS)-5-(1-(cyclopropyl-carbamoylmethyl)-1H-tetrazol-5-ylsulphanylmethyl)-1-oxo-1,1a,2,3,3a,6b-hexahydro-4-oxa-2,6a-diazacyclobut[cd]indene-6-carboxylic acid] | 8 | 8 (≈ 19.6 µM) | – | –
8 | NC(=O)Cn1nnnc1SCC1=C(C(=O)O)N2C(=O)[C@H]3NC[C@@H](O1)[C@H]32 [Example 29(j), (1aS,3aR,6bS)-5-(1-Carbamoylmethyl-1H-tetrazol-5-ylsulphanylmethyl)-1-oxo-1,1a,2,3,3a,6b-hexahydro-4-oxa-2,6a-diazacyclobut[cd]indene-6-carboxylic acid] | 4 | 8 (≈ 21.8 µM) | – | –
9 | CNC(=O)Cn1nnnc1SCC1=C(C(=O)O)N2C(=O)[C@H]3NC[C@@H](O1)[C@H]32 [Example 29(k), (1aS,3aR,6bS)-5-(1-Methylcarbamoylmethyl-1H-tetrazol-5-ylsulphanylmethyl)-1-oxo-1,1a,2,3,3a,6 b-hexahydro-4-oxa-2,6a-diazacyclobut[cd]indene-6-carboxylic acid] | 8 | 32 (≈ 83.9 µM) | – | –
10 | O=CN1C[C@H]2OC(CSc3nnnn3CC(=O)NC3CC3)=C(C(=O)O)N3C(=O)[C@@H]1[C@@H]23 [Example 37, (1aS,3aR,6bS)-5-(1-Cyclopropylcarbamoylmethyl-1H-tetrazol-5-ylsulphanylmethyl)-2-formyl-1-oxo-1,1a,2,3,3a,6b-hexahydro-4-oxa-2,6a-diazacyclobut[cd]indene-6-carboxylic acid sodium salt] | 32 | 32 | – | –
11 | Cn1nnnc1SCC1=C(C(=O)O)N2C(=O)[C@H]3NC[C@@H](S1)[C@H]32 [Example 40(a), (1aS,3aR,6bS)-5-(1-Methyl-1H-tetrazol-5-ylsulphanylmethyl)-1-oxo-4-thia-1,1a,2,3,3a,6b-hexahydro-2,6a-diazacyclobut[cd]indene-6-carboxylic acid] | 0.5 | 16 (≈ 47 µM) | – | –
12 | Cn1nnnc1CSCC1=C(C(=O)O)N2C(=O)[C@H]3NC[C@@H](S1)[C@H]32 [Example 43, (1aS,3aR,6bS)-5-(1-Methyl-1H-tetrazol-5-ylmethylsulphanylmethyl)-1-oxo-4-thia-1,1a,2,3,3a,6 b-hexahydro-2,6a-diazacyclobut-[cd]indene-6-carboxylic acid sodium salt] | 4 | > 32 | – | –
13 | CSc1nnnn1CC1=C(C(=O)O)N2C(=O)[C@H]3NC[C@@H](S1)[C@H]32 [Example 44, (1aS,3aR,6bS)-5-(5-Methylsulphanyl-1H-tetrazol-1-ylmethyl)-1-oxo-1,1a,2,3,3a,6b-hexahydro-4-thia-2,6a-diazacyclobut[cd]indene-6-carboxylic acid sodium salt] | 4 | 32 | – | –
14 | C=CC1=C(C(=O)O)N2C(=O)[C@@H]3[C@H]2[C@H](C1)CN3C(C)=O [Example 47, (1aS,3aR, 6bR)-2-Acetyl-1-oxo-5-vinyl-1a,2,3,3a,4,6b-hexahydro-1H-2,6a-diazacyclobut[cd]indene-6-carboxylic acid sodium salt] | 4 | 8 | – | –
15 | O=C([O-])C[n+]1ccc(SCC2=C(C(=O)O)N3C(=O)[C@H]4NC[C@@H](C2)[C@H]43)cc1 [Example 50, (1aS,3aR,6bR)-[4-(6-Carboxy-1-oxo-1a,2,3,3a,4,6b-hexahydro-1H-2,6a-diazacyclobut[cd]indene-5-ylmethylsulphanyl)-pyridin-1-ylio]acetatetrifluoroacetate] | 2 | 4 (≈ 10.7 µM) | – | –
16 | O=C([O-])C[n+]1ccc(SCC2=C(C(=O)O)N3C(=O)[C@@H]4[C@H]3[C@H](C2)CN4C(=O)NCc2ccccc2)cc1 [Example 51, (1aS,3aR,6bR)-[4-(2-Benzylcarbamoyl-6-carboxy-1-oxo-1a,2,3,3a,4,6b-hexahydro-1H-2,6a-diazacyclobut[cd]inden-5-ylmethylsulphanyl)-pyridin-2-ylio]-acetate sodium salt] | 1 | > 32 | – | –
